The nature of data set [1]: Precipitation / turbidity of compound in assay buffer (600 nm). In kind it is physicochemical. Particulars: activity screening buffer, 500 µM. Here is the method:
1.3 µL of derivatives of 4-phenylthiazol-2-amine in 100% DMSO were mixed with 237.7 µL of a mastermix of WT PfMDH previously incubated with NAD+. The final compound concentration used in this screening was 500 µM in the presence of 0.5% (v/v) DMSO. The microplate was sealed with silver foil for 1-h incubation at 25–35 °C. Finally, reactions in both the samples and control wells were started upon the addition of 13.0 µL of 5 mM malate). At the end of the experiments, the reaction of the plate was spectrophotometrically assayed at 600 nm in order to identify turbidity due to the low solubility of the compound. All measurements were performed in duplicate.

Data set [2] addresses T1, PfMDH (Plasmodium falciparum, UniProt Q6VVP7).
T1 construct: The full-length WT PfMDH gene was cloned into pETM-13; made in house; host or cells: E. coli Rosetta 2 (DE3) pLysS
Description: Thermal shift assay (TSA). In kind it is binding. Here is the method:
The TSA experiment was conducted in a BioRad CSX 96 (Biorad). Each reaction consisted of 1 mM of compound (100 mM stock in 100% (v/v) DMSO) and 10 μM PfMDH in 100 mM Na–phosphate buffer pH 7.4, 400 mM NaCl, and 10× Sypro Orange (Invitrogen) for a total volume of 100 μl. Control experiments were performed with 1% (v/v) DMSO. Inflection points were determined using BioRad CFX96™ control software. Generally, a temperature increase of over 1 °C is interpreted as a result of the stabilization of the protein-ligand interaction. On the contrary, a negative shift is considered a destabilization caused by the fragment.

The target of data set [3] is T1, PfMDH. Conditions: Supplementary Table 2; ref 10.1021/jm070336k; cited from earlier work.
The test system of the next data set is HsMDH2. Particulars: Supplementary Table 1, cited from earlier work.
The subject of another data set is HsMDH1. More on the design: method as in earlier work. Particulars: Supplementary Table 1; ref 10.1021/acs.jmedchem.7b01231; cited from earlier work.
In data set [4] the target is T1, PfMDH. As to the kind of experiment: Small-angle X-ray scattering (SAXS) of PfMDH with compounds. Conditions: 1 mM compound; for radius of gyration Rg of PfMDH in complex: apo PfMDH 33.78 ± 5.51. Here is the method:
X-ray scattering experiments were performed using the laboratory SAXS system Xeuss 2.0 (XENOCS, Grenoble, France) equipped with a MetalJet D2 microfocus X-ray generator (0.134 nm wavelength). The protein solution at a concentration of 2.49 mg ml^−1 was mixed with 4PA derivatives at a concentration of 1 mM, incubated for 1 h at room temperature, and spun at 16,000 rpm (Eppendorf Centrifuge 5415R) to remove any potential aggregates prior to injection into the low-noise liquid sample cell. SAXS data were collected in 3–4 subsequent 10 min long frames using a Pilatus3R 1 M hybrid photon counting detector (Dectris, Switzerland). Data reduction and buffer subtraction procedures were performed using the Foxtrot package. Scattering profiles were assessed for radiation-damaged and averaged. Structural parameters were calculated in Primus from the ATSAS package. The distance distribution function was calculated using GNOM[58].

The target in data set [5] is T1, PfMDH. As to the kind of experiment: Dynamic light scattering (DLS), aggregation. Particulars: PfMDH samples incubated with compound. As for the experimental part:
Measurements were performed on Litesizer 500 (Anton Paar). Samples were incubated with the highest concentrations of compounds for 2 h at room temperature. Prior to measurements, samples were spun for 5 min at 16,000 rpm (Eppendorf Centrifuge 5415R) to remove aggregates.

A further data set has as its system MDH. Conditions: cited from earlier work.
Where [6] appears, read: ref 10.1021/acs.jmedchem.7b01231.

One may read the ΔTm as the shift of the melting midpoint relative to a reference. In general, Tm refers to the temperature at the midpoint of the melting transition. Broadly, the IC50 is the concentration at which inhibition is half-maximal.

Values joined by “and” are separate entries in the source; they are usually repeats but may differ in a detail not shown here. Identical values can stand only once. Like-named read-outs stand apart in the source and are kept apart here. Bounds are passed on as bounds.

T1 sequence (Q6VVP7 entry or part of it): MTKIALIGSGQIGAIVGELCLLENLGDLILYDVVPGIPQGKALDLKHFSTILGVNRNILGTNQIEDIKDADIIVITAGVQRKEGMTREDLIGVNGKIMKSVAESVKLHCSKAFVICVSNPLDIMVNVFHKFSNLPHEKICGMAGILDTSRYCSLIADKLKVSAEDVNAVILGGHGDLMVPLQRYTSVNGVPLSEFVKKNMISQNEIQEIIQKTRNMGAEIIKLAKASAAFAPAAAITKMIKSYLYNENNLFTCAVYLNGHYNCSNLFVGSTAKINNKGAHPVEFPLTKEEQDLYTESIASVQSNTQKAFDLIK

As for “4-(3-(trifluoromethyl)phenyl)thiazol-2-amine [compound 8a]”, in data set [1], the “precipitation of compound in the buffer” value is recorded as “precipitation of compound was observed”. Also, at PfMDH [2] (1 mM compound vs DMSO control), the thermal shift (ΔTm) was −10 °C. On PfMDH [2] (1 mM compound, 10 μM PfMDH, DMSO control Tm 58), the Tm came out at 48.0 ± 1.0 °C.

On to `O=C(O)C(=O)Nc1ccc(CCOc2cc(O)c3c(=O)cc(C(=O)O)oc3c2)cc1` [Inhibitor 2], for which the half-inhibitory concentration (IC50) at PfMDH [3] is > 241 µM.

Turning to `COc1cc(CCOc2cc(O)c3c(=O)cc(C(=O)O)oc3c2)ccc1NC(=O)C(=O)O` [Inhibitor 4], the IC50 at PfMDH [3] is > 225 µM. Consider `O=C1Cc2c([nH]c3ccc(Br)cc23)-c2ccccc2N1Cc1ccc(Cl)c(Cl)c1` [Inhibitor 4h], for which the IC50 in the data set on HsMDH2 (ref 10.1016/j.ejmech.2009.10.018) is 1.1 ± 0.1 µM. For the compound `COc1ccc(CNC(=O)c2cc(=O)c3c(O)cc(OCCc4ccc(NC(=O)C(=O)O)c(OC)c4)cc3o2)cc1` [Inhibitor 7], at PfMDH [3], the half-inhibitory concentration (IC50) was 2.66 ± 0.24 µM. In the case of `COC(=O)c1cccc(NC(=O)CCCOc2ccc(C(C)(C)CC(C)(C)C)cc2)c1` [Inhibitor 14b], the IC50 is 1.11 ± 0.01 µM in the data set with HsMDH2 (setting [6]) and 1.18 ± 0.08 µM with HsMDH1. Take `COC(=O)c1ccc(O)c(NC(=O)CCCOc2ccc(C(C)(C)CC(C)(C)C)cc2)c1` [Inhibitor 14c]: the IC50 in the data set with HsMDH2 (setting [6]) was 1.11 ± 0.01 µM. As for `COC(=O)c1cccc(NC(=O)CCOc2ccc(C(C)(C)CC(C)(C)C)cc2)c1` [Inhibitor 16c], the half-maximal inhibitory concentration (IC50) in the data set on HsMDH2 (setting [6]) was 1.06 ± 0.03 µM; in the data set on HsMDH1, 1.07 ± 0.07 µM. For `NC(=O)C(=O)O` [Oxamate], the half-inhibitory concentration (IC50) at PfMDH [3] is > 2000 µM. Consider `Nc1nc(-c2ccc([N+](=O)[O-])cc2)cs1` [compound 2a], for which, at PfMDH [4], the “radius of gyration Rg of PfMDH in complex” value is 33.78 ± 0.83 Å and 33.8 Å. Besides, the “precipitation of compound in the buffer” value in data set [1] is “precipitation of compound was observed”. Moreover, the “aggregation in DLS” value at PfMDH [5] was “no aggregation in DLS”.

Consider `Nc1nc(-c2ccc(Br)cc2)cs1` [compound 6a], for which the “Rg from Dmax analysis” value at PfMDH [4] (apo 33.93 ± 4) is listed as 34.52 ± 4.3 Å. Moreover, the Dmax at PfMDH [4] (apo 104.75) came out at 113.74 Å. Moreover, on PfMDH [4] (apo 113.65), the “MW estimate of PfMDH complex” value is listed as 91.175 kDa. Further, the “radius of gyration Rg of PfMDH in complex” value at PfMDH [4] is 36.4 ± 3.15 Å and 36.4 Å. The “precipitation of compound in the buffer” value in data set [1] is recorded as “precipitation of compound was observed”. Besides, at PfMDH [5], the “aggregation in DLS” value is reported as “no aggregation in DLS”.

In the case of `CC(C)c1ccc(-c2csc(N)n2)cc1` [compound 10a], the “precipitation of compound in the buffer” value in data set [1] was “precipitation of compound was observed”. Consider `O=c1c(O)c(-c2ccc(O)c(O)c2)oc2cc(O)cc(O)c12` [quercetin], for which the IC50 in the data set on MDH was 6 µM. Consider `CC(=O)c1c(O)c(C)c(O)c(Cc2c(O)c3c(c(C(=O)/C=C/c4ccccc4)c2O)OC(C)(C)C=C3)c1O` [rottlerin], for which, in the data set on MDH, the IC50 was 0.7 µM.

These data come from publication PMC8355244, “A fragment-based approach identifies an allosteric pocket that impacts malate dehydrogenase activity” (Communications Biology, 2021).
